pKi: −log10 of the molar value.

By pKi is commonly meant the Ki on a negative log10 scale, so that one unit is a factor of ten.

Assay [1] concerns the target T1, Adenosine receptor A1 (Homo sapiens, UniProt P30542).
T1 sequence (P30542 whole entry): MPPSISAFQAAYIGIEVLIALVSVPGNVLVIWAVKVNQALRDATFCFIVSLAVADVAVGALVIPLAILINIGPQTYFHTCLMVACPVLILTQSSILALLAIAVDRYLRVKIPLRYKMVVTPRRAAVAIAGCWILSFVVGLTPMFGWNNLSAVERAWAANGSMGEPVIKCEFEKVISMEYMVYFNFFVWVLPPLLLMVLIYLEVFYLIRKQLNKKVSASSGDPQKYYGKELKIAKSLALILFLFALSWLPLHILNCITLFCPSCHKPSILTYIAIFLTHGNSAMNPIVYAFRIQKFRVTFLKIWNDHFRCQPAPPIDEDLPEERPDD
The experiment in a line: Displacement of [3H]R-PIA from recombinant human A1AR expressed in HEK293 cell membranes measured after 60 mins by liquid scintillation counting method. (In a radioligand displacement assay an active substance lowers the binding of a labelled ligand.)

The target of assay [2] is T2, Adenosine receptor A1 (Mus musculus, UniProt Q60612).
T2 sequence (Q60612 whole entry): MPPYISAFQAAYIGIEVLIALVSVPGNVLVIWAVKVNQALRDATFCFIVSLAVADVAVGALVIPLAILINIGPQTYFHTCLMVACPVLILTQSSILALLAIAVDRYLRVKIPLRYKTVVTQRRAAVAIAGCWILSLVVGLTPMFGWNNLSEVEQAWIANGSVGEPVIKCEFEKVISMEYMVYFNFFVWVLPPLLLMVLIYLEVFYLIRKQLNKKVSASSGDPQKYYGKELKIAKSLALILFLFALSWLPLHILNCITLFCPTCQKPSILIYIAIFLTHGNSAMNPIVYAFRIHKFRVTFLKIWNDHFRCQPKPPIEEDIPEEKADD
Kind of assay: Displacement of [3H]R-PIA from recombinant mouse A1AR expressed in HEK293 cell membranes measured after 60 mins by liquid scintillation counting method.

The target of a further assay is Adenosine receptor A2a (Homo sapiens, UniProt P29274). Kind of assay: Displacement of [3H]CGS21680 from recombinant human A2AAR expressed in HEK293 cell membranes measured after 60 mins by liquid scintillation counting method.
Chain of Adenosine receptor A2a (P29274 whole entry): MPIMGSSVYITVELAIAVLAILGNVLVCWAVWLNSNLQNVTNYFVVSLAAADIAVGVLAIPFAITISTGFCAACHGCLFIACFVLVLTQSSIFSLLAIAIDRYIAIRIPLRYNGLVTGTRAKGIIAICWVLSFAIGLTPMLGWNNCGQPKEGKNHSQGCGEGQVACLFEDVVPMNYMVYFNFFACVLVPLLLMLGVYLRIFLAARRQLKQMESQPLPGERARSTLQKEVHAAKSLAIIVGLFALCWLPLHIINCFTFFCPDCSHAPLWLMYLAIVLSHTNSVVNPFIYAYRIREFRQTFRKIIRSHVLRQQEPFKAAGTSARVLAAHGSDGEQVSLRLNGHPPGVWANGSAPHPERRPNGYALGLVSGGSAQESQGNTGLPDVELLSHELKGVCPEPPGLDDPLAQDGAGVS
The target of assay [3] is T3, Adenosine receptor A3 (Homo sapiens, UniProt P0DMS8).
T3 sequence (P0DMS8 whole entry): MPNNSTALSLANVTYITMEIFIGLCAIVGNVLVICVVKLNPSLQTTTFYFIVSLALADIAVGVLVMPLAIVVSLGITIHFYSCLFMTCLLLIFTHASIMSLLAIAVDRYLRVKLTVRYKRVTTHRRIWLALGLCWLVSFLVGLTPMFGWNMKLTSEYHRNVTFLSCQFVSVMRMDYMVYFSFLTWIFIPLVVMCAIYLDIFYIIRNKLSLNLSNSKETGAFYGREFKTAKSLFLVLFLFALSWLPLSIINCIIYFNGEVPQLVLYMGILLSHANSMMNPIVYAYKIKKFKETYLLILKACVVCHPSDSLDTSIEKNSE
Kind of assay: biochemical.

For assay [4], the target named is T4, Adenosine receptor A3 (Mus musculus, UniProt Q61618).
T4 sequence (Q61618 whole entry): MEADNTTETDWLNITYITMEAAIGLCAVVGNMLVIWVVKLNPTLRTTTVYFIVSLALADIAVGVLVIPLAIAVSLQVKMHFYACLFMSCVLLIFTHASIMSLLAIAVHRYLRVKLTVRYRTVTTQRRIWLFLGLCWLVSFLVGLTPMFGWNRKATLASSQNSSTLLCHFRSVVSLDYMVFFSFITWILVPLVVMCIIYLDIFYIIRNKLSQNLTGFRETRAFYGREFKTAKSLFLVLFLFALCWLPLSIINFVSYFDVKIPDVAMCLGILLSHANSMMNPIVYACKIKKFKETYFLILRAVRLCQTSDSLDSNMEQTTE
Kind of assay: biochemical.

For `COc1cc(CCNc2nc(C#Cc3ccccc3F)nc3c2ncn3[C@H]2[C@H](O)[C@H](O)[C@@H]3C[C@@H]32)ccc1O`, the pKi was 6.73 at Adenosine receptor A1 [1]; 6.21 at Adenosine receptor A1 [2]; 5.23 at Adenosine receptor A2a; 8.27 on Adenosine receptor A3 [3]; 7.67 at Adenosine receptor A3 [4].

Values taken from ChEMBL document CHEMBL4402597, “Truncated (N)-Methanocarba Nucleosides as Partial Agonists at Mouse and Human A3 Adenosine Receptors: Affinity Enhancement by N6-(2-Phenylethyl) Substitution” (J Med Chem, 2020).
